Earlier results as cited in patent publication US20040208853A1, “Method and device for sanitation using bacteriophages” (priority 2000, published 2004).

System: bacterial counts on fresh-cut fruits
Conditions: most effective chemical sanitizer

OO [hydrogen peroxide]
maximum reduction rate in bacterial counts on fresh-cut fruits: 1.3 logs
